The record followed here is patent US20200055839A1 (priority 2017, published 2020).

In this experiment the test system is NL-RLuc virus. Description: Inhibition of HIV replication (NL-RLuc virus, luciferase readout in MT-2 cells). It is filed as cell-based. The note with it: Human immunodeficiency virus 1, MT2, 120 h, MT-2 cells infected with NL-RLuc virus, 5 days of incubation, 10% FBS, at least 2 experiments. An outline of the steps: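 MT-2 cells infected with NL4-3-derived virus carrying Renilla luciferase in place of part of nef, grown 5 days with serial compound dilutions in RPMI 1640/10% FBS. Virus growth read as luciferase expression. EC50 from median effect equation, at least 2 experiments.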
Regarding `Cc1ncc(-c2cccc3ccccc23)c(N2CCC(C)(C)CC2)c1[C@H](OC(C)(C)C)C(=O)O` [Example 182, (2S)-2-(tert-Butoxy)-2-[4-(4,4-dimethylpiperidin-1-yl)-2-methyl-5-(naphthalen-1-yl)pyridin-3-yl]acetic acid], the concentration for a half-maximal effect (EC50) is 27 nM. Then `Cc1ncc(-c2ccc3ccccc3c2)c(N2CCC(C)(C)CC2)c1[C@H](OC(C)(C)C)C(=O)O` [Example 183, (2S)-2-(tert-Butoxy)-2-[4-(4,4-dimethylpiperidin-1-yl)-2-methyl-5-(naphthalen-2-yl)pyridin-3-yl]acetic acid], with 6 nM; and `Cc1ncc(-c2cccc3cccnc23)c(N2CCC(C)(C)CC2)c1[C@H](OC(C)(C)C)C(=O)O` [Example 184, (2S)-2-(tert-Butoxy)-2-[4-(4,4-dimethylpiperidin-1-yl)-2-methyl-5-(quinolin-8-yl)pyridin-3-yl]acetic acid], with 8 nM.

The compound `Cc1ccc(-c2cnc(C)c([C@H](OC(C)(C)C)C(=O)O)c2N2CCC(C)(C)CC2)nc1` [Example 185, (2S)-2-(tert-Butoxy)-2-[4′-(4,4-dimethylpiperidin-1-yl)-5,6′-dimethyl-[2, 3′-bipyridine]-5′-yl]acetic acid] came in with an EC50 of 11 nM.

In the case of `Cc1ncc(-c2ccccn2)c(N2CCC(C)(C)CC2)c1[C@H](OC(C)(C)C)C(=O)O` [Example 186, (2S)-2-(tert-Butoxy)-2-[4′-(4,4-dimethylpiperidin-1-yl)-6′-methyl-[2, 3′-bipyridine]-5′-yl]acetic acid], it took 37 nM to reach a half-maximal effect (EC50). Then `Cc1ncc(-c2ncccn2)c(N2CCC(C)(C)CC2)c1[C@H](OC(C)(C)C)C(=O)O` [Example 187, (2S)-2-(tert-Butoxy)-2-[4-(4,4-dimethylpiperidin-1-yl)-2-methyl-5-(pyrimidin-2-yl)pyridin-3-yl]acetic acid], with 107 nM; and `COc1cccc(-c2cnc(C)c([C@H](OC(C)(C)C)C(=O)O)c2N2CCC(C)(C)CC2)n1` [Example 189, (S)-2-(tert-Butoxy)-2-(4′-(4,4-dimethylpiperidin-1-yl)-6-methoxy-6′-methyl-[2, 3′-bipyridin]-5′-yl)acetic acid], with 41 nM; and `Cc1nc(CN2CCC3(CCC3)CC2)c(-c2ccccc2)c(N2CCC(C)(C)CC2)c1[C@H](OC(C)(C)C)C(=O)O` [Example 190, (2S)-2-[6-({7-Azaspiro[3.5]nonan-7-yl}methyl)-4-(4,4-dimethylpiperidin-1-yl)-2-methyl-5-phenylpyridin-3-yl]-2-(tert-butoxy)acetic acid], with 3 nM. The compound `Cc1nc(CN2CCC3(CCC3)CC2)c(-c2ccc(F)cc2)c(N2CCC(C)(C)CC2)c1[C@H](OC(C)(C)C)C(=O)O` [Example 191, (2S)-2-[6-({7-Azaspiro[3.5]nonan-7-yl}methyl)-4-(4,4-dimethylpiperidin-1-yl)-5-(4-fluorophenyl)-2-methylpyridin-3-yl]-2-(tert-butoxy)acetic acid] gave an EC50 of 2 nM. Then `COc1ccc(-c2c(CN3CCC4(CCC4)CC3)nc(C)c([C@H](OC(C)(C)C)C(=O)O)c2N2CCC(C)(C)CC2)cc1` [Example 192, (2S)-2-[6-({7-Azaspiro[3.5]nonan-7-yl}methyl)-4-(4,4-dimethylpiperidin-1-yl)-5-(4-methoxyphenyl)-2-methylpyridin-3-yl]-2-(tert-butoxy)acetic acid], with 1 nM; and `Cc1nc(CN2CCC3(CCC3)CC2)c(-c2cc(F)c(F)c(F)c2)c(N2CCC(C)(C)CC2)c1[C@H](OC(C)(C)C)C(=O)O` [Example 193, (2S)-2-[6-({7-Azaspiro[3.5]nonan-7-yl}methyl)-4-(4,4-dimethylpiperidin-1-yl)-2-methyl-5-(3,4,5-trifluorophenyl)pyridin-3-yl]-2-(tert-butoxy)acetic acid], with 4 nM. Then `COc1c(F)cc(-c2c(CN3CCC4(CCC4)CC3)nc(C)c([C@H](OC(C)(C)C)C(=O)O)c2N2CCC(C)(C)CC2)cc1F` [Example 194, (2S)-2-[6-({7-Azaspiro[3.5]nonan-7-yl}methyl)-5-(3,5-difluoro-4-methoxyphenyl)-4-(4,4-dimethylpiperidin-1-yl)-2-methylpyridin-3-yl]-2-(tert-butoxy)acetic acid], with 0.6 nM; and `Cc1nc(CN2CCC3(CCC3)CC2)c(-c2ccc(F)c(F)c2)c(N2CCC(C)(C)CC2)c1[C@H](OC(C)(C)C)C(=O)O` [Example 195, (2S)-2-[6-({7-Azaspiro[3.5]nonan-7-yl}methyl)-5-(3,4-difluorophenyl)-4-(4,4-dimethylpiperidin-1-yl)-2-methylpyridin-3-yl]-2-(tert-butoxy)acetic acid], with 1 nM.

Regarding `COc1c(F)cc(-c2c(CN3CCC3)nc(C)c([C@H](OC(C)(C)C)C(=O)O)c2N2CCC(C)(C)CC2)cc1F` [Example 196, (2S)-2-{6-[(Azetidin-1-yl)methyl]-5-(3,5-difluoro-4-methoxyphenyl)-4-(4,4-dimethylpiperidin-1-yl)-2-methylpyridin-3-yl}-2-(tert-butoxy)acetic acid], it took 19 nM to reach a half-maximal effect (EC50). Then `COc1c(F)cc(-c2c(CN(C)C)nc(C)c([C@H](OC(C)(C)C)C(=O)O)c2N2CCC(C)(C)CC2)cc1F` [Example 197, (2S)-2-(tert-Butoxy)-2-[5-(3,5-difluoro-4-methoxyphenyl)-6-[(dimethylamino)methyl]-4-(4,4-dimethylpiperidin-1-yl)-2-methylpyridin-3-yl]acetic acid], with 11 nM; and `COc1c(F)cc(-c2c(CN3CCCC3)nc(C)c([C@H](OC(C)(C)C)C(=O)O)c2N2CCC(C)(C)CC2)cc1F` [Example 198, (2S)-2-(tert-Butoxy)-2-[5-(3,5-difluoro-4-methoxyphenyl)-4-(4,4-dimethylpiperidin-1-yl)-2-methyl-6-[(pyrrolidin-1-yl)methyl]pyridin-3-yl]acetic acid], with 12 nM. Then `COc1c(F)cc(-c2c(CN3CCCCCCC3)nc(C)c([C@H](OC(C)(C)C)C(=O)O)c2N2CCC(C)(C)CC2)cc1F` [Example 199, (2S)-2-{6-[(Azocan-1-yl)methyl]-5-(3,5-difluoro-4-methoxyphenyl)-4-(4,4-dimethylpiperidin-1-yl)-2-methylpyridin-3-yl}-2-(tert-butoxy)acetic acid], with 4 nM. With `CC1(C)CCN(c2c(-c3ccc(OCCc4ccc(F)cc4)cc3)cncc2[C@H](OC(C)(C)C)C(=O)O)CC1` [Example 200, (S)-2-(tert-Butoxy)-2-(4-(4,4-dimethylpiperidin-1-yl)-5-(4-(4-fluorophenethoxy)phenyl)pyridin-3-yl)acetic acid] the figure was 2 nM. `CC1(C)CCN(c2c(-c3ccc(CNc4ncnc5c4oc4ccccc45)cc3)cnc(Cl)c2[C@H](OC(C)(C)C)C(=O)O)CC1` [Example 201, (S)-2-(5-(4-((Benzofuro[3,2-d]pyrimidin-4-ylamino)methyl)phenyl)-2-chloro-4-(4,4-dimethylpiperidin-1-yl)pyridin-3-yl)-2-(tert-butoxy)acetic acid] had an EC50 of 1 nM. With `CC1(C)CCN(c2c(-c3ccc(OCCc4ccc(F)cc4)cc3)cnc(N3CCCC3)c2[C@H](OC(C)(C)C)C(=O)O)CC1` [Example 202, (S)-2-(tert-Butoxy)-2-(4-(4,4-dimethylpiperidin-1-yl)-5-(4-(4-fluorophenethoxy)phenyl)-2-(pyrrolidin-1-yl)pyridin-3-yl)acetic acid] the figure was 75 nM.

As for `COc1c(F)cc(-c2c(CNCC3CCOCC3)nc(Cl)c([C@H](OC(C)(C)C)C(=O)O)c2N2CCC(C)(C)CC2)cc1F` [Example 203, (S)-2-(tert-Butoxy)-2-(2-chloro-5-(3,5-difluoro-4-methoxyphenyl)-4-(4,4-dimethylpiperidin-1-yl)-6-((((tetrahydro-2H-pyran-4-yl)methyl)amino)methyl)pyridin-3-yl)acetic acid], a half-maximal response (EC50) required 7 nM. With `COc1c(F)cc(-c2c(CN3CCC4(CCC4)CC3)nc(Cl)c([C@H](OC(C)(C)C)C(=O)O)c2N2CCC(C)(C)CC2)cc1F` [Example 204] the figure was 1 nM; with `COc1c(F)cc(-c2c(CO)nc(Cl)c([C@H](OC(C)(C)C)C(=O)O)c2N2CCC(C)(C)CC2)cc1F` [Example 205, (S)-2-(tert-Butoxy)-2-(2-chloro-5-(3,5-difluoro-4-methoxyphenyl)-4-(4,4-dimethylpiperidin-1-yl)-6-(hydroxymethyl)pyridin-3-yl)acetic acid], 6 nM.

In the case of `CC1(C)CCN(c2c(-c3ccc(OCCc4ccc(F)cc4)cc3)c(N)nc(Cl)c2[C@H](OC(C)(C)C)C(=O)O)CC1` [Example 206, (S)-2-(6-Amino-2-chloro-4-(4,4-dimethylpiperidin-1-yl)-5-(4-(4-fluorophenethoxy)phenyl)pyridin-3-yl)-2-(tert-butoxy)acetic acid], a half-maximal effect (EC50) was put at 2 nM.

`CC1(C)CCN(c2c(-c3ccc(F)c(F)c3)c(CN3CCC4(CCC4)CC3)nc(Cl)c2[C@H](OC(C)(C)C)C(=O)O)CC1` [Example 207, (S)-2-(6-((7-Azaspiro[3.5]nonan-7-yl)methyl)-2-chloro-5-(3,4-difluorophenyl)-4-(4,4-dimethylpiperidin-1-yl)pyridin-3-yl)-2-(tert-butoxy)acetic acid] had an EC50 of 36 nM.

`CC1(C)CCN(c2c(-c3ccc(F)c(F)c3)cnc(Cl)c2[C@H](OC(C)(C)C)C(=O)O)CC1` [Example 208, (S)-2-(tert-Butoxy)-2-(2-chloro-5-(3,4-difluorophenyl)-4-(4,4-dimethylpiperidin-1-yl)pyridin-3-yl)acetic acid] had an EC50 of 35 nM. Then `CC1(C)CCN(c2c(-c3ccc(OCCc4ccc(F)cc4)c(F)c3)c(N)nc(Cl)c2[C@H](OC(C)(C)C)C(=O)O)CC1` [Example 209, (S)-2-(6-Amino-2-chloro-4-(4,4-dimethylpiperidin-1-yl)-5-(3-fluoro-4-(4-fluorophenethoxy)phenyl)pyridin-3-yl)-2-(tert-butoxy)acetic acid], with 4 nM.

As usually defined, the EC50 is the midpoint of the concentration-response curve.
